Several values for one entry are separate records, joined by “and”; a condition that tells them apart may be missing. Identical values can stand only once.
How the values were obtained:
[1] = target: dye-labeled TPP riboswitch (WT/24-68); test: smFRET titration of TPP, high-FRET state occupancy; type: binding, E. coli; conditions: TPP 0 to 100 μM, 2 mM Mg2+; fit y=ymax(x/x+Kd); read-out: estimated Kd (apparent dissociation constant)
Method: FIG. 20. Former tpp The dye-labeled TPP riboswitch (WT/24-68) binds TPP with nanomolar affinity. The affinity of TPP for the WT/24-68 labeled construct was estimated by titrating TPP from 0 to 100 μM in the presence of 2 mM Mg^2+, and quantifying the change in population of fully folded riboswitch molecules (high-FRET state occupancy) as a function of TPP concentration using single-molecule FRET measurements. Shown (black squares) is the average high-FRET state occupancy value (total area under the curve) obtained by fitting population FRET histograms to three Gaussian distributions (low-, intermediate- and high-FRET) over three independent experiments. Each value was normalized to the percent high-FRET state occupancy observed at […]. […]
smFRET data were acquired using a prism-based total internal reflection microscope, where the biotinylated TPP riboswitch was surface immobilized within PEG-passivated, strepatividin-coated quartz microfluidic devices. {Dave R, et al 2009} The Cy3 fluorophore was directly illuminated under 1.5 kW cm^−2 intensity at 532 nm (Laser Quantum). […] Fluorescence data were acquired using MetaMorph acquisition software (Universal Imaging Corporation) at a rate of 66.7 frames per second (15 ms integration). Fluorescence trajectories were selected from the movie files for analysis using automated image analysis software coded in Matlab (The MathWorks). […]

[2] = target: truncated (ΔP3/A11AP) preQ1-II riboswitch aptamer construct; test: 2-aminopurine fluorescence titration of preQ1 binding, truncated aptamer; parameters: species or system Streptococcus pneumoniae R6
Method: (§1) FIG. 10. A11/2-Aminopurine (A11AP) fluorescence measurements of WT and ΔP3 preQ1-II riboswitch variants. (a) Secondary structure of the WT/A11AP (left) and ΔP3/A11AP (right) preQ1-II variant. (b) Qualitative fluorescence response upon Mg^2+ (4 mM) and subsequent preQ1 addition (10 μM) (λex=308 nm; detection at 372 nm). (c) Fluorescence emission spectra (λex=308 nm) from 320 to 480 nm for each preQ1 concentration. (d) Normalized 2AP fluorescence intensity plotted as a function of preQ1 concentrations, changes in fluorescence (F-F0) were normalized to the maximum fluorescence measured in the absence of ligands. […]
(§2) Experiments were measured on a Cary Eclipse spectrophotometer (Varian) equipped with a peltier block and a magnetic stirring device. […] Spectra were recorded from 320 to 500 nm with excitation wavelength 308 nm and scan rate of 120 nm/min. The apparent binding constants KD were determined by following the increase in fluorescence after each titration step via integration of the area between 330 and 450 nm. Changes in fluorescence (F-F0) were normalized to the maximum fluorescence measured in the absence of ligand. Measurements for each titration step was repeated at least two times and the mean of the normalized fluorescence intensity was plotted against ligand concentration. The final KD value is the arithmetic mean, determined from two to three independent titration experiments.

[3] = target: wild-type (A11AP) preQ1-II riboswitch aptamer construct; test: 2-aminopurine fluorescence titration of preQ1 binding, wild-type aptamer; parameters: species or system Streptococcus pneumoniae R6; conditions: 0.5 μM RNA, 50 mM KMOPS, 100 mM KCl, Mg2+, 25° C.; 2-aminopurine at position A11
Method: as §1, §2

Structure (SMILES)	Kd [1]	Kd ([2]; 0.5 μM RNA, 50 mM KMOPS, 100 mM KCl, Mg2+, 25° C., 2-aminopurine at position A11)	decrease in affinity compared to the wild-type (A11AP) aptamer construct ([2]; truncated construct vs wild-type)	Kd [3]
Cc1ncc(C[n+]2csc(CCO[P@](=O)(O)OP(=O)(O)O)c2C)c(N)n1 [TPP, thiamine pyrophosphate]	~100 nM and 115 nM			
NCC1C=Nc2nc(N)[nH]c(=O)c21 (stereo not shown) [preQ1, 7-aminomethyl-7-deazaguanine]		4200 ± 100 nM	10 fold	430 ± 10 nM

— patent publication US10421989B2, “Methods and reagents for riboswitch analysis” (CORNELL UNIVERSITY, priority 2014, dated 2019)
